Test results as given in PubChem BioAssay (NCI).
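Grown in 96-well plates, cells were treated for 48 hours with each compound at five concentrations. Insufficient inhibition: endpoint recorded as highest concentration tested. TGI denotes the concentration required for complete inhibition of growth.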

Tests used:
Assay in all cases: DTP human tumour cell line panel, 48 h
[1] = test system: SW-620 colon
[2] = test system: HOP-18 NSCLC
[3] = test system: OVCAR-3 ovarian
[4] = test system: DMS 114 small cell lung
[5] = test system: IGROV1 ovarian
[6] = test system: DMS 273 small cell lung
[7] = test system: HOP-62 NSCLC
[8] = test system: SR leukemia
[9] = test system: RPMI-8226 leukemia
[10] = test system: XF 498 CNS
[11] = test system: SK-OV-3 ovarian
[12] = test system: A549 NSCLC
[13] = test system: SF-268 CNS
[14] = test system: SNB-78 CNS
[15] = test system: HCC-2998 colon
[16] = test system: UACC-62 melanoma
[17] = test system: HOP-92 NSCLC
[18] = test system: DLD-1 colon
[19] = test system: SK-MEL-28 melanoma
[20] = test system: M14 melanoma
[21] = test system: UACC-257 melanoma
[22] = test system: CCRF-CEM leukemia
[23] = test system: LXFL 529 NSCLC
[24] = test system: HL-60(TB) leukemia
[25] = test system: COLO 205 colon
[26] = test system: M19-MEL melanoma
[27] = test system: MALME-3M melanoma
[28] = test system: SF-295 CNS
[29] = test system: KM12 colon
[30] = test system: A498 renal
[31] = test system: KM20L2 colon
[32] = test system: 786-0 renal
[33] = test system: SF-539 CNS
[34] = test system: NCI-H23 lung
[35] = test system: SK-MEL-2 melanoma
[36] = test system: HT29 colon
[37] = test system: SK-MEL-5 melanoma
[38] = test system: UO-31 renal
[39] = test system: U251 CNS
[40] = test system: SNB-75 CNS
[41] = test system: ACHN renal
[42] = test system: OVCAR-4 ovarian
[43] = test system: EKVX NSCLC
[44] = test system: TK-10 renal
[45] = test system: LOX IMVI melanoma
[46] = test system: OVCAR-8 ovarian
[47] = test system: OVCAR-5 ovarian
[48] = test system: HCT-15 colon
[49] = test system: SN12C renal
[50] = test system: NCI-H460 lung
[51] = test system: MOLT-4 leukemia
[52] = test system: HCT-116 colon
[53] = test system: NCI-H522 lung
[54] = test system: RXF 393 renal
[55] = test system: SNB-19 CNS
[56] = test system: K-562 leukemia
[57] = test system: CAKI-1 renal
[58] = test system: NCI-H226 lung
[59] = test system: RXF-631 renal

Measured: TGI

CCc1cccc(C)c1NC(=O)CCc1nnc(SC)o1
not listed: [58] | [59]
> 100 µM: all other assays above

S=c1nc(COc2ccc(Cl)cc2)[nH][nH]1
not listed: [2] | [8] | [10] | [43]
> 100 µM: all other assays above
